Reference: PubChem BioAssay (NCI)
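Five compound concentrations were applied to cells in 96-well plates for 48 hours; endpoints were derived by simple linear interpolation of the resulting dose-response curve. TGI: total growth inhibition.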

Legend:
Assay in all cases: growth of human tumour cells (NCI), 48 h
[1] = system: 786-0 renal
[2] = system: A498 renal
[3] = system: A549 NSCLC
[4] = system: ACHN renal
[5] = system: CCRF-CEM leukemia
[6] = system: COLO 205 colon
[7] = system: DLD-1 colon
[8] = system: DMS 114 small cell lung
[9] = system: DMS 273 small cell lung
[10] = system: EKVX NSCLC
[11] = system: HCT-116 colon
[12] = system: HCT-15 colon
[13] = system: HL-60(TB) leukemia
[14] = system: HOP-18 NSCLC
[15] = system: HOP-62 NSCLC
[16] = system: HOP-92 NSCLC
[17] = system: HT29 colon
[18] = system: IGROV1 ovarian
[19] = system: K-562 leukemia
[20] = system: KM12 colon
[21] = system: KM20L2 colon
[22] = system: LOX IMVI melanoma
[23] = system: LXFL 529 NSCLC
[24] = system: M14 melanoma
[25] = system: M19-MEL melanoma
[26] = system: MOLT-4 leukemia
[27] = system: NCI-H226 lung
[28] = system: NCI-H23 lung
[29] = system: NCI-H460 lung
[30] = system: NCI-H522 lung
[31] = system: OVCAR-4 ovarian
[32] = system: OVCAR-5 ovarian
[33] = system: OVCAR-8 ovarian
[34] = system: RPMI-8226 leukemia
[35] = system: RXF 393 renal
[36] = system: SF-268 CNS
[37] = system: SF-295 CNS
[38] = system: SF-539 CNS
[39] = system: SK-MEL-28 melanoma
[40] = system: SK-MEL-5 melanoma
[41] = system: SN12C renal
[42] = system: SNB-19 CNS
[43] = system: SNB-75 CNS
[44] = system: SR leukemia
[45] = system: SW-620 colon
[46] = system: U251 CNS
[47] = system: UACC-257 melanoma
[48] = system: UACC-62 melanoma
[49] = system: HCC-2998 colon
[50] = system: MALME-3M melanoma
[51] = system: OVCAR-3 ovarian
[52] = system: RXF-631 renal
[53] = system: SK-MEL-2 melanoma
[54] = system: SK-OV-3 ovarian
[55] = system: TK-10 renal
[56] = system: UO-31 renal
[57] = system: XF 498 CNS
[58] = system: CAKI-1 renal
[59] = system: SNB-78 CNS

Measured: TGI

CCOC12SC(=Nc3ccc(C)cc3)NN1C(=S)N(C)N=C2C (stereo not drawn)
> 100 µM: [1] | [2] | [3] | [4] | [5] | [6] | [7] | [8] | [9] | [10] | [11] | [12] | [13] | [14] | [15] | [16] | [17] | [18] | [19] | [20] | [21] | [22] | [23] | [24] | [25] | [26] | [27] | [28] | [29] | [30] | [31] | [32] | [33] | [34] | [35] | [36] | [37] | [38] | [39] | [40] | [41] | [42] | [43] | [44] | [45] | [46] | [47] | [48]

COc1ccc(C(O)/C(=C/n2ccnc2)c2ccccc2)cc1OC (stereo not drawn)
> 100 µM: [1] | [2] | [3] | [4] | [5] | [6] | [7] | [8] | [9] | [10] | [49] | [11] | [12] | [13] | [14] | [15] | [16] | [17] | [18] | [19] | [20] | [21] | [22] | [24] | [25] | [50] | [26] | [27] | [28] | [29] | [51] | [31] | [32] | [33] | [34] | [35] | [52] | [36] | [37] | [38] | [53] | [39] | [40] | [54] | [41] | [42] | [43] | [44] | [45] | [55] | [46] | [47] | [48] | [56] | [57]

CN(CCN(C)C(=O)CCOS(C)(=O)=O)C(=O)CCOS(C)(=O)=O
> 100 µM: [1] | [2] | [3] | [4] | [58] | [5] | [6] | [7] | [8] | [9] | [10] | [49] | [11] | [12] | [13] | [14] | [15] | [16] | [17] | [18] | [19] | [20] | [21] | [22] | [23] | [24] | [50] | [26] | [27] | [28] | [29] | [30] | [51] | [31] | [32] | [33] | [34] | [36] | [37] | [38] | [53] | [39] | [40] | [54] | [41] | [42] | [43] | [59] | [44] | [45] | [55] | [46] | [47] | [48] | [57]
